pIC50: −log10 of the molar value.
Biological target: Dual specificity calcium/calmodulin-dependent 3',5'-cyclic nucleotide phosphodiesterase 1B (Homo sapiens, UniProt Q01064)
Assay: Ca2+-Calmodulin Dependent PDE Enzyme Assays
Protocol: PDE1B, PDE1A, and PDE1C are cloned and purified following standard protein generation procedures. The assay buffer is prepared to give a final concentration in the assay of 50 mM Tris-HCl, 50 mM MgCl2, 4 mM CaCl2, 0.1% Bovine serum albumin and 6 U/ml Calmodulin in water, at pH 7.5.

Sequence of Dual specificity calcium/calmodulin-dependent 3',5'-cyclic nucleotide phosphodiesterase 1B (Q01064 whole entry): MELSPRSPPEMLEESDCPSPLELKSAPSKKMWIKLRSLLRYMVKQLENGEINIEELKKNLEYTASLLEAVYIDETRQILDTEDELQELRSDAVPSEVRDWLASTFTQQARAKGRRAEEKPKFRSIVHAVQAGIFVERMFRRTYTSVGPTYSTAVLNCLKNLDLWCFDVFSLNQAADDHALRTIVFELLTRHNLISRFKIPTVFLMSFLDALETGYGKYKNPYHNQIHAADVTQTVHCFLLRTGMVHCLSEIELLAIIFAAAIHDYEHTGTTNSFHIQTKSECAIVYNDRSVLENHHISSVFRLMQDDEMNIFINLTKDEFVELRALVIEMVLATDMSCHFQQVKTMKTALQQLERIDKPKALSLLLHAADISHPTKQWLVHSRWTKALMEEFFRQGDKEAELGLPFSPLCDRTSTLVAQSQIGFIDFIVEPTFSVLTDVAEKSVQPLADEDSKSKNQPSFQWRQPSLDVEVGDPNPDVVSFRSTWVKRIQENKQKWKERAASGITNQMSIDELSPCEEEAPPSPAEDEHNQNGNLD

Row | pIC50 | SMILES
1 | 9.38 | CCCCn1c(=O)c2nnc(C3(C4CC4)CC3)n2c2ncc(CC)cc21 [US11180503, Example 9]
2 | 9.03 | CCCCn1c(=O)c2nnc(C3(C4CC4)CC3)n2c2ncc(CO)cc21 [US11180503, Example 11]

Source: BindingDB's records for patent US11180503 (ELI LILLY AND COMPANY, 2021)
